# Source: paper PMC11881452, “Inactivation of NLRP3 inflammasome by dephosphorylation at Serine 658 alleviates glial inflammation in the mouse model of Parkinson’s disease” (Molecular Neurodegeneration, 2025)
# Key:
# [1] = biological target: T1, NLRP3 (Homo sapiens, UniProt Q96P20); assay: SPR, NLRP3 immobilized on CM5 chip, […] binding model; design: Recombinant human NLRP3 protein (CUSBIO, #CSB-EP822275HU3)
# Target sequence in this assay (Q96P20 whole entry): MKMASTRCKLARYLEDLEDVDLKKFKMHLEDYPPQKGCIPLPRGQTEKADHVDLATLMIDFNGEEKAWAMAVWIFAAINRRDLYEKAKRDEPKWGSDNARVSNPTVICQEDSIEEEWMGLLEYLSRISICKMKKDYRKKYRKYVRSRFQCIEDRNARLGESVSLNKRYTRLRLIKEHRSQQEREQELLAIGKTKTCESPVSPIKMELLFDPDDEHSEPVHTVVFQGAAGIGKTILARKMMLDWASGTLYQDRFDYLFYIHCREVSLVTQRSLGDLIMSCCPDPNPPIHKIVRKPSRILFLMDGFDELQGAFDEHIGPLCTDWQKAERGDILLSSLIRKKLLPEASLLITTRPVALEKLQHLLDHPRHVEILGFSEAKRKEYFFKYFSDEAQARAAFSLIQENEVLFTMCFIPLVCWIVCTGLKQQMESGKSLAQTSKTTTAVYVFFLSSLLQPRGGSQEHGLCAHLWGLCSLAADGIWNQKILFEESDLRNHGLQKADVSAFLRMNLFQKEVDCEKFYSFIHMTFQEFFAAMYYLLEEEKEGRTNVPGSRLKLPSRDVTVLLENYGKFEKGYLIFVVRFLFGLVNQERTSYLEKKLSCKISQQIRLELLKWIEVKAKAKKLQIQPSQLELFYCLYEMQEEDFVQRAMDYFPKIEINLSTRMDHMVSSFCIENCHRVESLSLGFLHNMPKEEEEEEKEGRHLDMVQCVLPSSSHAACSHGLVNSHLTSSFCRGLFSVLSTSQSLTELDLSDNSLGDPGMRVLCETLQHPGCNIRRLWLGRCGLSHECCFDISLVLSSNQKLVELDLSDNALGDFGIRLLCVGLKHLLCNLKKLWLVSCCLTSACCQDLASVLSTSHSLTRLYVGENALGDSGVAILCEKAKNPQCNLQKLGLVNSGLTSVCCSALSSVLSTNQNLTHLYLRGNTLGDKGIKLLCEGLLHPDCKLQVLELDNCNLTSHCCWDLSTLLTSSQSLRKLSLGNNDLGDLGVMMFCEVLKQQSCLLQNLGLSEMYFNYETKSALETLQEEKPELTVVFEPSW
# [2] = biological target: T1, NLRP3; assay: streptavidin pull-down from HEK-293T lysates, Western blot; format: cell-based; design: Flag-NLRP3; Flag-NLRP3 (NACHT: 220-536aa); Flag-NLRP3 (LRR: 742-991aa)
# Target sequence in this assay (Q96P20 220-536): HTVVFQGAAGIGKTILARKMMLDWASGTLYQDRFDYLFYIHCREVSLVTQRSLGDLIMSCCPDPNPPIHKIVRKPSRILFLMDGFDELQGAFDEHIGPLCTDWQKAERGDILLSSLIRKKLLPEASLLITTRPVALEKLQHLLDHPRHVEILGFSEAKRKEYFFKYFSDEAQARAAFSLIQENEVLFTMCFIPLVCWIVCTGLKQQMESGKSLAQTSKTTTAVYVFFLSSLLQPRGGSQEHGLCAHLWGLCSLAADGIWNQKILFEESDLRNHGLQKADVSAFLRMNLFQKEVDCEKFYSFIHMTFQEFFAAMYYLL
SMILES,Kd [1] [µM],"streptavidin pull-down from HEK-293T lysates, Western blot [2]"
"O=c1ccc2cc3ccoc3cc2o1 [S4737, Psoralen]",209,–
O=c1c2ccccc2nc2n1CCc1c-2[nH]c2ccccc12 [S2349],146,–
O=C1N[C@H]2[C@H](CS[C@H]2CCCCC(=O)Oc2c3occc3cc3ccc(=O)oc23)N1 [Biotinylated-Psoralen],–,"Streptavidin pull-down assays showed that Bio-Pso specifically bound to the NACHT and LRR domains, but not the PYD domain"
